Source: PMC11729428, “New Potent Inhibitor of Transforming Growth Factor-Beta (TGFβ) Signaling that is Efficacious against Microsatellite Stable Colorectal Cancer Metastasis in Combination with Immune Checkpoint Therapy in Mice” (ACS Pharmacology & Translational Science, 2024)
Where “and” joins values, the source holds several entries; their conditions need not be identical. Equal values may be shown once. Read-outs that look alike come from different tables or passages of the source.

What was measured:
ALK3 (BMPR1A) = molecular target: T1, ALK3 (BMPR1A) (Homo sapiens, UniProt P36894); assay: KINOMEscan competitive binding assay (Kd); conditions: analyses herein; read-out: Binding constant (Kd) ALK3 (BMPR1A)
T1 construct: purchased Eurofins/DiscoveryX (KINOMEscan service)
Description: (§1) 5. Methods for In vitro characterizations of HYL001
(§2) Kinase affinity and selectivity
(§3) Kd values were obtained by an 11 -point
(§4) (BMPR1A), ALK4 (ACVR1B), ALK6 (BMPR1B), ACVR2B and TGFβ R2. […]

ACVR2B = molecular target: T2, ACVR2B (Homo sapiens, UniProt Q13705); assay: KINOMEscan competitive binding assay (Kd); conditions: analyses herein; read-out: Binding constant (Kd) ACVR2B
T2 construct: purchased Eurofins/DiscoveryX (KINOMEscan service)
Description: as §1, §2, §3, §4

TGFBR2 = molecular target: T3, TGFBR2 (Homo sapiens, UniProt P37173); assay: KINOMEscan competitive binding assay (Kd); conditions: analyses herein; read-out: Binding constant (Kd) TGFBR2
T3 construct: purchased Eurofins/DiscoveryX (KINOMEscan service)
Description: as §1, §2, §3, §4

ALK1 (ACVRL1) = molecular target: T4, ALK1 (ACVRL1) (Homo sapiens, UniProt P37023); assay: KINOMEscan competitive binding assay (Kd); conditions: analyses herein; read-out: Binding constant (Kd) ALK1 (ACVRL1)
T4 construct: purchased Eurofins/DiscoveryX (KINOMEscan service)
Description: as §1, §2, §3, §4

ALK6 (BMPR1B) [1] = molecular target: T5, ALK6 (BMPR1B) (Homo sapiens, UniProt O00238); assay: KINOMEscan competitive binding assay (Kd); conditions: analyses herein; read-out: Binding constant (Kd) ALK6 (BMPR1B)
T5 construct: purchased Eurofins/DiscoveryX (KINOMEscan service)
Description: as §1, §2, §3, §4

ALK2 (ACVR1) = molecular target: T6, ALK2 (ACVR1) (Homo sapiens, UniProt Q04771); assay: KINOMEscan competitive binding assay (Kd); conditions: analyses herein; read-out: Binding constant (Kd) ALK2 (ACVR1)
T6 construct: purchased Eurofins/DiscoveryX (KINOMEscan service)
Description: as §1, §2, §3, §4

ALK4 (ACVR1B) = molecular target: T7, ALK4 (ACVR1B) (Homo sapiens, UniProt P36896); assay: KINOMEscan competitive binding assay (Kd); conditions: analyses herein; read-out: Binding constant (Kd) ALK4 (ACVR1B)
T7 sequence (P36896 24-505): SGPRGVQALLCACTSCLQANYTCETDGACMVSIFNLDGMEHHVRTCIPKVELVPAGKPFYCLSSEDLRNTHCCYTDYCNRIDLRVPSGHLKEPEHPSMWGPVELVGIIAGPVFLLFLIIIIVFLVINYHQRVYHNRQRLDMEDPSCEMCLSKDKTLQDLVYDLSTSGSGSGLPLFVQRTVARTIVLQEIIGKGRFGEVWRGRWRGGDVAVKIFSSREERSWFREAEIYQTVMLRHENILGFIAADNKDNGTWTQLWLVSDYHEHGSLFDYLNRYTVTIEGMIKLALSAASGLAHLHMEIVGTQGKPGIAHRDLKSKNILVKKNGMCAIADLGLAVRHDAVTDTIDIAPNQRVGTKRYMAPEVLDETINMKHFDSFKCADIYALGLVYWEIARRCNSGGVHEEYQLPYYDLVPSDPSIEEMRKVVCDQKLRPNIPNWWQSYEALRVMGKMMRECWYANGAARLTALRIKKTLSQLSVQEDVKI
Description: as §1, §2
(§5) The affinity of the ALK5 inhibitor HYL001 was determined for the ALK kinase family using the […]
(§6) DNA-tagged kinases and immobilized assay ligands, using quantitative PCR —run by Eurofins/DiscoveryX (Birmingham AL, USA). Dissociation constants were calculated by measuring the amount of kinase captured on the solid support as a function of the test compound concentration. Kd values were obtained by an 11 -point half-log dilution range of 0.5–30,000 nM of inhibitor for ALK1 (ACVRL1), ALK2 (ACVR1), ALK3 (BMPR1A), ALK4 (ACVR1B), ALK6 (BMPR1B), ACVR2B and TGFβ R2. In addition, this technology was used to assess selectivity towards a panel of 97 Kinases (scanEDGE) by Eurofins Panlabs (Grapevine TX, USA).
(§7) The strength of competitive binding, defined as the percentage of binding inhibition of kinases to assay ligan d, was visualized using the TREEspot software (DiscoverRx Corporation) and a selectivity score was calculated (the fraction of non -mutated kinases tested with competitive binding inhibition above threshold percentages 65 […]

ALK5 (TGFBR1) = ALK5 (TGFBR1) (Homo sapiens, UniProt P36897); assay: KINOMEscan competitive binding assay (Kd); conditions: analyses herein; HYL001 run twice, average 22.5 nM; read-out: Binding constant (Kd) ALK5 (TGFBR1)
Description: as §1, §2, §5, §6, §7

[2] = Plasma pharmacokinetics after single oral administration in rats; assay type: in vivo, Sprague Dawley rats; conditions: 71 mg/kg, rats (♂ SD)
Description: (§8) We assessed the in vivo pharmacokinetic properties of HYL001 after a single oral administration (dose of 71 mg/kg) in BALB/c mice as well as in Sprague–Dawley (SD) Rats. Liquid chromatography–tandem mass spectrometry (LC/MS/MS) was used for the determination of HYL001 in plasma (Figure S2 and Table 2).
6. Methods for in vivo characterizations of HYL001
Similarly, three rats were used in this study. Animals were administered orally with a suspension formulation of […]

[3] = Plasma pharmacokinetics after single oral administration in mice; assay type: in vivo; conditions: male, mouse, 71 mg/kg
Description: as §8
6. Methods for in vivo characterizations of HYL001 […]
WinNonlin software (Version 8.0) […]

ALK6 (BMPR1B) [4] = molecular target: T5, ALK6 (BMPR1B); set-up: method as in earlier work; conditions: reported data ref 15; read-out: Binding constant (Kd) ALK6 (BMPR1B); cited from earlier work
[5] = Literature oral pharmacokinetics in mice; assay type: in vivo; conditions: female, mouse, plasma, mice (♀ CD-1), 75 mg/kg, estimated using AUClast of ref 20
Description: Table 2 Pharmacokinetics of HYL001 in Preclinical Species after Oral Administration ^a | column: Cl/F (mL/min/kg)

[6] = male, Sprague-Dawley, rat, plasma

Chain of ALK5 (TGFBR1) (P36897 34-503): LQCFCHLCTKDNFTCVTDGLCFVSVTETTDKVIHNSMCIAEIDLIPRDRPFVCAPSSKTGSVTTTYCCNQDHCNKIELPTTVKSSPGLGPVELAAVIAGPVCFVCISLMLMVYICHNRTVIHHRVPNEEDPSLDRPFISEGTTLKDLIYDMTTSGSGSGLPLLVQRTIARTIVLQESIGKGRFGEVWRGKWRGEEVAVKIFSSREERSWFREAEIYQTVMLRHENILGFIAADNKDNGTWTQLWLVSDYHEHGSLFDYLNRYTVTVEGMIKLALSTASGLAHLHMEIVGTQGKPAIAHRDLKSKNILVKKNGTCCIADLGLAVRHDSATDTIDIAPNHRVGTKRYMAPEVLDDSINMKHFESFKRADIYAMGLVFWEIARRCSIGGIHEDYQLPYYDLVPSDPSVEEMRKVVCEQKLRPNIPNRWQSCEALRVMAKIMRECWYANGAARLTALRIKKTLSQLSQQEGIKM
T5 sequence (O00238 14-502): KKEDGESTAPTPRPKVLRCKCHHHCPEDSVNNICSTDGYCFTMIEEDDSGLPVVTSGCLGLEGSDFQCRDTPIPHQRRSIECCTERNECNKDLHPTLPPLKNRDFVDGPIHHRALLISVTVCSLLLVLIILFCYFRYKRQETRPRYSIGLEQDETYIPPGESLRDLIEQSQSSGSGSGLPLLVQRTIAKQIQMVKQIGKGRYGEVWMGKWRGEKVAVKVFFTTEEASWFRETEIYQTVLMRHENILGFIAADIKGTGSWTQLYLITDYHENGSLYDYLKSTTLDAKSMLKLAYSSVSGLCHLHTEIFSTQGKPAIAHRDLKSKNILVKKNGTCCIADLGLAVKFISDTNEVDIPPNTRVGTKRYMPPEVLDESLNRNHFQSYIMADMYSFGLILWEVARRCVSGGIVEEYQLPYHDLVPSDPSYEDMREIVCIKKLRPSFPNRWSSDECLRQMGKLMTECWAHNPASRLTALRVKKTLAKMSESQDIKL
T2 sequence (Q13705 19-512): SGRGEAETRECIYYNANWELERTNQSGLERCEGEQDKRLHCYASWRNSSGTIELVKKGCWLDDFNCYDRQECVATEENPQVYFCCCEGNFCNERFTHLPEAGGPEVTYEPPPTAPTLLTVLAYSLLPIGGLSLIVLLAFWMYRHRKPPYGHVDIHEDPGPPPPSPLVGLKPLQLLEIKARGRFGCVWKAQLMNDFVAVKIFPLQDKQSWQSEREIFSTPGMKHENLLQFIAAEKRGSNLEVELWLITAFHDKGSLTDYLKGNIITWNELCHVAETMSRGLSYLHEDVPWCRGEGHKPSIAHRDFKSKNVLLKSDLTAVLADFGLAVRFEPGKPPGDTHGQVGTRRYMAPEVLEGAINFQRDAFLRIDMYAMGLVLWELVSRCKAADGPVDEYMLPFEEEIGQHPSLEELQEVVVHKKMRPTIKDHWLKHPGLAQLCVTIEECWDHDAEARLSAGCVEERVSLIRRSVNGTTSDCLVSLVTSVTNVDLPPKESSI
T6 sequence (Q04771 21-509): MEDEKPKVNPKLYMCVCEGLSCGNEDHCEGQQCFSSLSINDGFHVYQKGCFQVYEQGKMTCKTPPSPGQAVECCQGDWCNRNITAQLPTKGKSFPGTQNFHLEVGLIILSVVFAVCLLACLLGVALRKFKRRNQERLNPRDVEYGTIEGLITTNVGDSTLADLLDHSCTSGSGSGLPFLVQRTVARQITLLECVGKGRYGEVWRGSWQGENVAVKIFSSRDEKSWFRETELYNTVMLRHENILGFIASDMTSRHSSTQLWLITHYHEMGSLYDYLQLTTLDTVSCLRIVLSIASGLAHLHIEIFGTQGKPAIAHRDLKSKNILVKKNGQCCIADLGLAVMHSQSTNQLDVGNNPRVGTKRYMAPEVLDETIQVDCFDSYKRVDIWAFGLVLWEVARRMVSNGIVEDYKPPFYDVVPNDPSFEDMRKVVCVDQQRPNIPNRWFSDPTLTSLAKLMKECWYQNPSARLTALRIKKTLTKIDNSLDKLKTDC
T4 sequence (P37023 22-503): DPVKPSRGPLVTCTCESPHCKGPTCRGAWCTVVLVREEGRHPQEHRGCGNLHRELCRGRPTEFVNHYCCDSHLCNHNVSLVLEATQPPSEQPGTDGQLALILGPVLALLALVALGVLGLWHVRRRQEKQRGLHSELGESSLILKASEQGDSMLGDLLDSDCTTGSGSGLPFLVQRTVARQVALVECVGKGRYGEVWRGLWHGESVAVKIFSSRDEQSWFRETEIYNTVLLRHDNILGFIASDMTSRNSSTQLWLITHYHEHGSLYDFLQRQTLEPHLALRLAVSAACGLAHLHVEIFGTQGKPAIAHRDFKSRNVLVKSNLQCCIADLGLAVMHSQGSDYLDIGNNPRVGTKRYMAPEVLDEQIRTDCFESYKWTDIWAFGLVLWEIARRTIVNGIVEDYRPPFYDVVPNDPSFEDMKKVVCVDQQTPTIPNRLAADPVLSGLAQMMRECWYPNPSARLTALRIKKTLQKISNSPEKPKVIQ
T1 sequence (P36894 24-532): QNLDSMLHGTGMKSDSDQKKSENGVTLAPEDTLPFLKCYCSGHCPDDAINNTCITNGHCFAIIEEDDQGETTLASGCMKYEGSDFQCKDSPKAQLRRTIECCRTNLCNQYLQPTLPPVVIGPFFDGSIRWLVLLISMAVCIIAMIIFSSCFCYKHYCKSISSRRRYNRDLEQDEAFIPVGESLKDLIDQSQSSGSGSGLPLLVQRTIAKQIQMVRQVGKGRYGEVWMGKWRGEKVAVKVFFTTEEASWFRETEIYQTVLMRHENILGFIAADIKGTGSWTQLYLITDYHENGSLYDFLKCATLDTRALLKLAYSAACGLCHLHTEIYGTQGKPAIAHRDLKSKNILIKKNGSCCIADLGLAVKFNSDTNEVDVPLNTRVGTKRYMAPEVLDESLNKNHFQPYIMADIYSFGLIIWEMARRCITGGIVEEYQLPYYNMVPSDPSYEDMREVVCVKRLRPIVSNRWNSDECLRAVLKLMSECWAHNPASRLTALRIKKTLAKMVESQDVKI
T3 sequence (P37173 23-567): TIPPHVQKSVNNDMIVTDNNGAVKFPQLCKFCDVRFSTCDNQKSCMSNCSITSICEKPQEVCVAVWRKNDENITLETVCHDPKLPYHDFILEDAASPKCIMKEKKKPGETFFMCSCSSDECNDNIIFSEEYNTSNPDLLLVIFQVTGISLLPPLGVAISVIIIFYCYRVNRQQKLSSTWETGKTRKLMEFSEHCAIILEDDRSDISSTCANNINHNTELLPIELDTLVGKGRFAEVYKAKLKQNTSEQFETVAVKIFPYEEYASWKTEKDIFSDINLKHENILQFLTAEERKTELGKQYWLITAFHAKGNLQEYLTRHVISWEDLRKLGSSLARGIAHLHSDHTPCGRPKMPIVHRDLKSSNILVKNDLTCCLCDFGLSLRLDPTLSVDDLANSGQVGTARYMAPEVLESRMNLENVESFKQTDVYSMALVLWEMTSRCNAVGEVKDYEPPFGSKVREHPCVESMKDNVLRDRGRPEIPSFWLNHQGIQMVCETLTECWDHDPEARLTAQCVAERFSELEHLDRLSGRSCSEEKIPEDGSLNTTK

Cc1cccc(-c2nn3c(c2-c2ccnc4ccc(O)cc24)CCC3)n1 [HYL001, 4-(2-(6-Methylpyridin-2-yl)-5,6-dihydro-4H-pyrrolo[1,2-b]pyrazol-3-yl)quinolin-6-ol]
Kd (ALK3 (BMPR1A)): 6.9 µM
Kd (ACVR2B): 0.1 µM
Kd (TGFBR2): 2 µM
Kd (ALK1 (ACVRL1)): 11 µM
Kd (ALK6 (BMPR1B) [1]): 0.16 µM
Kd (ALK2 (ACVR1)): 7.5 µM
Kd (ALK4 (ACVR1B)): 0.013 µM
Kd (ALK5 (TGFBR1)): 0.025 µM and 0.0225 µM
half-life ([2]; male, Sprague-Dawley, rat, plasma, po): ~5 h
AUC(0-inf) [2, 6]: 22000 ng·h/mL
AUC(0-t) [2, 6]: 21600 ng·h/mL
CL/F [2, 6]: 53.8 mL/min/kg
Cmax [2, 6]: 8540 ng/mL
Tmax [2, 6]: 0.67 h
Vd/F ([2]; male, Sprague-Dawley, rat, plasma, read-out: Vss/F): 10.8 L/kg
T1/2 [2]: 4.8 h
half-life ([3]; BALB/c, po): ~2.5 h
AUC(0-inf) ([3]; mice (♂ BALB/c)): 4110 ng·h/mL
AUC(0-t) ([3]; mice (♂ BALB/c)): 3520 ng·h/mL
CL/F ([3]; mice (♂ BALB/c)): 288 mL/min/kg
Cmax ([3]; mice (♂ BALB/c)): 2050 ng/mL
Tmax ([3]; mice (♂ BALB/c)): 0.25 h
Vd/F ([3]; mice (♂ BALB/c), read-out: Vss/F): 66.7 L/kg

Cc1cccc(-c2nn3c(c2-c2ccnc4ccc(C(N)=O)cc24)CCC3)n1 [galunisertib]
Kd (ALK6 (BMPR1B) [4]): 0.471 µM
CL/F [5]: 402 mL/min/kg
